Experimental data taken from patent US12385902B2, “Methods for generating and screening compartmentalised peptide libraries” (UNIVERSITY OF SOUTHAMPTON, priority 2017, dated 2025).
Entries after “also recorded” stand apart in the source; their conditions may differ.

How the values were obtained:
[1] = test system: Alzheimer's protein Δβ42 fused to GFP; settings: Mathis et al., Nature Biomedical Engineering 2017; cited from earlier work
AB42-GFP fusion = biological target: T1, AB42-GFP fusion (Homo sapiens, UniProt P05067); assay: In vitro expression in microfluidic droplets of AB42-GFP fusion with cyclic peptide; aggregation assay read by FACS green fluorescence; assay type: biochemical; settings: double emulsion droplets, IVTT 2 h at 37° C., relative to buffer alone, IVTT alone and cyclo-CA5
T1 construct: In vitro expression in microfluidic droplets of AB42-GFP fusion with cyclo-TAFDR; made in house; host or cells: cell-free in vitro transcription/translation (IVTT)
Procedure: FIG. 17. In vitro expression in microfluidic droplets of AB42-GFP fusion with cyclo-TAFDR (SEQ ID NO: 7) (Matis et al.). Vector CSpDuetNpuHisAB42-GFP was utilised for the cloning of TAFDR (SEQ ID NO: 7) into MCS1. Thereafter, plasmid DNA was encapsulated into agarose droplets alongside isothermal DNA amplification reaction components and incubated overnight. Agarose beads were prepped as previously stated and re-encapsulated together with IVTT. A final emulsification step was performed to yield FACS compatible double emulsions. A negative control vector in the presence of CA5 was likewise constructed to verify cyclo-TAFDR (SEQ ID NO: 7) AB42-GFP aggregation inhibition.
When GFP is produced as an aggregating fusion, its fluorescence is lost; however, when the aggregation is disrupted by TAFDR (SEQ ID NO: 7), the GFP can fluoresce. See Mathis et al., Nature Biomedical Engineering volume 1, pages 838-852 (2017).
We have used the Δβ42 aggregation assay to assess the performance of the system of the invention. This assay has previously been combined with a SICLOPPS screen (Mathis et al.), so cyclo-TAFDR (SEQ ID NO: 7) is a validated positive cyclic peptide control.
Vector CSpDuetNpuHisAB42-GFP was utilised for the cloning of TAFDR (SEQ ID NO: 7) into MCS1. […]

T1 sequence (P05067 672-713 limits assumed): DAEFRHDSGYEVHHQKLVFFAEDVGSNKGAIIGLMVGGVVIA
Sequence of Alzheimer's protein Δβ42 fused to GFP (P05067 672-713 limits assumed, stated change not applied): as the sequence (P05067 672-713 limits assumed) above

## cyclo-TAFDR (cyclised)
[1]
  inhibition of aggregation of Aβ42 fused to GFP: inhibit aggregation
AB42-GFP fusion
  green fluorescence (GFP) upon cyclic peptide expression, associated with disruption of Aβ aggregation: positive shift in green fluorescence; also recorded: significant increase in fluorescence
